EC50 data for nine compounds are collected here from patent publication US8778954B2, “Phenylpyridine derivative and medicinal agent comprising same” (Kowa Company, Ltd., priority 2009, dated 2014).

For this assay, the target named is T1, human PPARγ2 (Homo sapiens, UniProt P37231).
T1 construct: the amino acids 182 to 505 of human PPARγ2; expressed in transfected cells; host or cells: COS7 cells (African green monkey kidney)
T1 sequence (P37231 182-505): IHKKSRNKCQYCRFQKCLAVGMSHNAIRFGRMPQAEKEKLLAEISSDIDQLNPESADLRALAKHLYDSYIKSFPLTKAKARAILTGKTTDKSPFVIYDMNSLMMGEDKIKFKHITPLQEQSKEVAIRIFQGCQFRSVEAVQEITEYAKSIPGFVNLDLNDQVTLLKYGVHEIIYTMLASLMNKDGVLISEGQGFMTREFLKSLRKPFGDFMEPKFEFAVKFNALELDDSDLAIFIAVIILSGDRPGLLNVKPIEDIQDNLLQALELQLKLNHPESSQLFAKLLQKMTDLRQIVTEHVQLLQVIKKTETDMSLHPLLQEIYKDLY
The assay is described as follows: PPARγ activation activity, Gal4-PPARγ2 LBD luciferase transfection assay using COS7 cells. The following applies: Gal4-human PPARγ2 LBD chimera, 16 hours, rosiglitazone = 100%. The assay is classed as cell-based. On the procedure: The agonistic activity of the compounds of the invention on PPARγ was measured based on the transfection assay using COS7 cells (DS Pharma Biomedical Co., Ltd., Osaka, Japan), which are the cell line derived from the kidney of the African green monkey. COS7 cells were cultured under 5% CO2 concentration, and DMEM medium containing 10% fetal bovine serum, glutamic acid, and antibiotics was used as a medium.
As an expression vector, a chimera in which DNA binding domain of Gal4, which is a yeast transcription factor, and ligand binding domain of human PPARγ2 are fused, i.e., a fused product between the amino acids 1 to 147 of Gal4 transcription factor and the amino acids 182 to 505 of human PPARγ2, was used. Furthermore, as a reporter vector, a firefly luciferase containing five copies of Gal4 recognition sequence in the promoter region was used. Plasmid transfection to the cells was performed according to a method which uses jetPEI (trade name, manufactured by Funakoshi Co., Ltd., Tokyo, Japan). Furthermore, β-galactosidase expression vector was employed as an internal standard.
After the transfection of the cells, the medium was replaced with a DMEM medium (containing 1% serum) added with the test compound, and the cells were further cultured for 16 hours. After that, the luciferase activity and β-galactosidase activity in the cell lysis solution were measured.
For the present test, dimethyl sulfoxide (DMSO) was used for dissolution and dilution of the test compounds, and during the cell treatment, the DMSO concentration in DMEM medium (containing 1% serum) was adjusted to 0.1%. As a positive compound, rosiglitazone (trade name, manufactured by ALEXIS Corporation, Switzerland) was used. The luciferase activity (%) of the test compounds (1 to 30 μmol/L) was calculated when the luciferase activity of rosiglitazone (3 to 10 μmol/L) is 100% and the luciferase activity in the absence of the test compound is 0%. The 50% effective concentration of the test compound (EC50, 50% effect concentration) was calculated by using SAS Preclinical Package Ver 5.0 (trade name, manufactured by SAS institute Japan Co., Tokyo, Japan), which is a statistical analysis program.
EC50 values of these compounds are described in Table 2. […] Under the same condition, the PPARγ activation activity of telmisartan, i.e., EC50, was 1 to 5 μM.

In general, EC50 refers to the concentration that produces a half-maximal response. A higher EC50 goes with lower potency in that assay. With `CCCCc1nc(CC)n(-c2ncc(OCC)cn2)c(=O)c1Cc1ccc(-c2ccccc2-c2noc(=O)[nH]2)nc1` [Example 19, 3-{2-{5-{[4-butyl-1-(5-ethoxypyrimidin-2-yl)-2-ethyl-6-oxo-1,6-dihydropyrimidin-5-yl]methyl}pyridin-2-yl}phenyl}-1,2,4-oxadiazol-5(4H)-one], a half-maximal response (EC50) required 1500 nM. As for `CCCCc1nc(C(C)C)n(-c2ncc(OCC)cn2)c(=O)c1Cc1ccc(-c2ccccc2-c2nnn[nH]2)nc1` [Example 6, 5-{{6-[2-(1H-tetrazol-5-yl)phenyl]pyridin-3-yl}methyl}-6-butyl-3-(5-ethoxypyrimidin-2-yl)-2-isopropylpyrimidin-4(3H)-one], the response was half-maximal at 1360 nM (EC50).

As for `CCCCc1nc(CC)n(-c2ncc(OC)cn2)c(=O)c1Cc1ccc(-c2ccccc2-c2noc(=O)[nH]2)nc1` [Example 18, 3-{2-{5-{[4-butyl-2-ethyl-1-(5-methoxypyrimidin-2-yl)-6-oxo-1,6-dihydropyrimidin-5-yl]methyl}pyridin-2-yl}phenyl}-1,2,4-oxadiazol-5(4H)-one], a half-maximal effect (EC50) was put at 3390 nM. For the compound `CCCCc1nc(C(C)C)n(-c2ncc(OC)cn2)c(=O)c1Cc1ccc(-c2ccccc2-c2noc(=O)[nH]2)nc1` [Example 20, 3-{2-{5-{[4-butyl-2-isopropyl-1-(5-methoxypyrimidin-2-yl)-6-oxo-1,6-dihydropyrimidin-5-yl]methyl}pyridin-2-yl}phenyl}-1,2,4-oxadiazol-5(4H)-one], the concentration giving a half-maximal response (EC50) came to 850 nM. As for `CCCCc1nc(C2CCCC2)n(-c2ncc(OCC)cn2)c(=O)c1Cc1ccc(-c2ccccc2-c2noc(=O)[nH]2)nc1` [Example 26, 3-{2-{5-{[4-butyl-2-cyclopentyl-1-(5-ethoxypyrimidin-2-yl)-6-oxo-1,6-dihydropyrimidin-5-yl]methyl}pyridin-2-yl}phenyl}-1,2,4-oxadiazol-5(4H)-one], the figure is 380 nM; as for `CCCCc1nc(C2CCC2)n(-c2ncc(OC)cn2)c(=O)c1Cc1ccc(-c2ccccc2-c2noc(=O)[nH]2)nc1` [Example 24, 3-{2-{5-{[4-butyl-2-cyclobutyl-1-(5-methoxypyrimidin-2-yl)-6-oxo-1,6-dihydropyrimidin-5-yl]methyl}pyridin-2-yl}phenyl}-1,2,4-oxadiazol-5(4H)-one], 1460 nM. As for `CCCCc1nc(C2CCCCC2)n(-c2ncc(OCC)cn2)c(=O)c1Cc1ccc(-c2ccccc2-c2noc(=O)[nH]2)nc1` [Example 27, 3-{2-{5-{[4-butyl-2-cyclohexyl-1-(5-ethoxypyrimidin-2-yl)-6-oxo-1,6-dihydropyrimidin-5-yl]methyl}pyridin-2-yl}phenyl}-1,2,4-oxadiazol-5(4H)-one], the EC50 is 670 nM.

As to `CCCCc1nc(C)n(-c2ncc(C(F)(F)F)cc2Cl)c(=O)c1Cc1ccc(-c2ccccc2-c2nnn[nH]2)cn1` [Example 32, 5-{{5-[2-(1H-tetrazol-5-yl)phenyl]pyridin-2-yl}methyl}-6-butyl-3-[3-chloro-5-(trifluoromethyl)pyridin-2-yl]-2-methylpyrimidin-4(3H)-one], the response was half-maximal at 2740 nM (EC50). `CCCCc1nc(C2CCC2)n(-c2ncc(OCC)cn2)c(=O)c1Cc1ccc(-c2ccccc2-c2noc(=O)[nH]2)nc1` [Example 25, 3-{2-{5-{[4-butyl-2-cyclobutyl-1-(5-ethoxypyrimidin-2-yl)-6-oxo-1,6-dihydropyrimidin-5-yl]methyl}pyridin-2-yl}phenyl}-1,2,4-oxadiazol-5(4H)-one] registered an EC50 of 820 nM.
